Key:
[1] = molecular target: P-gp (Homo sapiens, UniProt P08183); assay: Drug transporter systems in vitro; assay type: in vitro ADME
[2] = molecular target: TRKB (Homo sapiens, UniProt Q16620); assay: In vitro biochemical and/or cellular kinase assays
[3] = Clinical pharmacokinetics of cabozantinib (absorption, distribution, elimination); assay type: in vivo, human
Source text: […]; steady state was achieved by Day 15.

[4] = molecular target: KIT (Homo sapiens, UniProt P10721); assay: In vitro biochemical and/or cellular kinase assays
Chain of KIT (P10721 26-976): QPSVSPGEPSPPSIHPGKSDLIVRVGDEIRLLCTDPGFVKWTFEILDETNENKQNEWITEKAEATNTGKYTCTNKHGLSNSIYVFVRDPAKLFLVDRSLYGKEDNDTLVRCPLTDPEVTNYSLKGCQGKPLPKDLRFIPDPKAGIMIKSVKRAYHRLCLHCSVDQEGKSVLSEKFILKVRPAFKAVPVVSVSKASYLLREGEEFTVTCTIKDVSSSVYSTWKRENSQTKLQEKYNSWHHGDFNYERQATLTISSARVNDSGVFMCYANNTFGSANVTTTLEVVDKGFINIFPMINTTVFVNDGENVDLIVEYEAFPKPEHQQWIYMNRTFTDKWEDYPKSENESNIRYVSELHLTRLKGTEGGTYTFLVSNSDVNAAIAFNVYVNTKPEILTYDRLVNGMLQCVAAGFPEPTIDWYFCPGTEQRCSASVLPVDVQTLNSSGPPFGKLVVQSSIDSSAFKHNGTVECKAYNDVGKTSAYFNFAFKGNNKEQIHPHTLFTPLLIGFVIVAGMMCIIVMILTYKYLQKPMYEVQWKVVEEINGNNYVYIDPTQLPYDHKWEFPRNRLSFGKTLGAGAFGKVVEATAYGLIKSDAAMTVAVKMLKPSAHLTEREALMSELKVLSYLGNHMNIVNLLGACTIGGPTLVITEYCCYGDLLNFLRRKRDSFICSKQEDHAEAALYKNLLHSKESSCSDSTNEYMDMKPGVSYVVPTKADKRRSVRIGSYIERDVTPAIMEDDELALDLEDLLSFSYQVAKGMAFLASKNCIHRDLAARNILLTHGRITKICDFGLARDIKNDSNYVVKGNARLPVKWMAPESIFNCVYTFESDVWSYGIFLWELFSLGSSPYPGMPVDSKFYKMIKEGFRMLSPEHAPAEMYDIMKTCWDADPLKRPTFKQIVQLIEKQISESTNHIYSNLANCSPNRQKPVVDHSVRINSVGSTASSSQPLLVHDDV

[5] = molecular target: AXL (Homo sapiens, UniProt P30530); assay: In vitro biochemical and/or cellular kinase assays
[6] = molecular target: CYP2A6 (Homo sapiens, UniProt P11509); assay: Metabolic pathways in vitro: effect of CYP inhibition on cabozantinib metabolite formation; assay type: in vitro ADME
[7] = molecular target: CYP2C8 (Homo sapiens, UniProt P10632); assay: as above; assay type: in vitro ADME
Chain of CYP2C8 (P10632 whole entry): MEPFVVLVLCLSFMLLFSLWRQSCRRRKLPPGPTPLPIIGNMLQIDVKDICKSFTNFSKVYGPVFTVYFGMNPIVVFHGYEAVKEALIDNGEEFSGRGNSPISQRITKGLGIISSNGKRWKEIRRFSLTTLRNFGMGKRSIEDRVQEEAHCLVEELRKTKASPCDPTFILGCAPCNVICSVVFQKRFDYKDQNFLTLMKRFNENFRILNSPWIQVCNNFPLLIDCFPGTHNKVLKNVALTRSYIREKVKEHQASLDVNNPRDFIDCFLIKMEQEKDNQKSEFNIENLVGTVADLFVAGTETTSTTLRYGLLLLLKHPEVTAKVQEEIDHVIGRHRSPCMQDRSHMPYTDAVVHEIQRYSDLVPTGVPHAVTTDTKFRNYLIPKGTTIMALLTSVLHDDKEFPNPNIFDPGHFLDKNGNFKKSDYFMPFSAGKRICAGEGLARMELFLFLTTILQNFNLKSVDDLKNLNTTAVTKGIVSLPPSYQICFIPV

[8] = system: female rats and offspring; assay: Pre- and postnatal study in rats; conditions: oral, gestation day 10 through postnatal day 20
[9] = system: CYP1A1 mRNA; assay: In vitro CYP induction by cabozantinib; assay type: in vitro ADME
[10] = system: bacteria; assay: Bacterial reverse mutation (Ames) assay; conditions: in vitro
[11] = molecular target: VEGFR-3 (Homo sapiens, UniProt P35916); assay: In vitro biochemical and/or cellular kinase assays
[12] = molecular target: MER (Homo sapiens, UniProt Q12866); assay: In vitro biochemical and/or cellular kinase assays
[13] = system: pregnant rabbits; assay: Embryo-fetal development study in pregnant rabbits; assay type: in vivo, rabbit; conditions: daily oral administration throughout organogenesis
[14] = system: rasH2 transgenic mice; assay: 26-week carcinogenicity study; conditions: 26-week study
[15] = system: patients; assay: Cabozantinib clinical program: serious events and overdosage case; assay type: in vivo, human
[16] = molecular target: T1, CYP2D6 (Homo sapiens, UniProt P10635); assay: Metabolic pathways in vitro: effect of CYP inhibition on cabozantinib metabolite formation; assay type: in vitro ADME
T1 sequence (P10635 whole entry): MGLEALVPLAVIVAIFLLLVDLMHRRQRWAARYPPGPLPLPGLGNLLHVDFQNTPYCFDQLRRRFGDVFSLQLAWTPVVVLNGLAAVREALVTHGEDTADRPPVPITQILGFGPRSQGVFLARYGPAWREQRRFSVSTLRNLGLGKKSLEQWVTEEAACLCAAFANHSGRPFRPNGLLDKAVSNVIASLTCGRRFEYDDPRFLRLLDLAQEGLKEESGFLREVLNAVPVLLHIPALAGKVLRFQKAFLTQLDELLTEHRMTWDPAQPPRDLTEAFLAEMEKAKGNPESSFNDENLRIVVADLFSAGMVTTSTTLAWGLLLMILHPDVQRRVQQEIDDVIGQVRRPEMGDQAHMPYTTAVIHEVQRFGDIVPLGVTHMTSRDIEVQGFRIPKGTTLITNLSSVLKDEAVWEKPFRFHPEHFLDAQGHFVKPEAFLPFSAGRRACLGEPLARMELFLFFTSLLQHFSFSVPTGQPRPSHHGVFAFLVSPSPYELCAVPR

[17] = molecular target: CYP2B6 (Homo sapiens, UniProt P20813); assay: as above; assay type: in vitro ADME
Chain of CYP2B6 (P20813 whole entry): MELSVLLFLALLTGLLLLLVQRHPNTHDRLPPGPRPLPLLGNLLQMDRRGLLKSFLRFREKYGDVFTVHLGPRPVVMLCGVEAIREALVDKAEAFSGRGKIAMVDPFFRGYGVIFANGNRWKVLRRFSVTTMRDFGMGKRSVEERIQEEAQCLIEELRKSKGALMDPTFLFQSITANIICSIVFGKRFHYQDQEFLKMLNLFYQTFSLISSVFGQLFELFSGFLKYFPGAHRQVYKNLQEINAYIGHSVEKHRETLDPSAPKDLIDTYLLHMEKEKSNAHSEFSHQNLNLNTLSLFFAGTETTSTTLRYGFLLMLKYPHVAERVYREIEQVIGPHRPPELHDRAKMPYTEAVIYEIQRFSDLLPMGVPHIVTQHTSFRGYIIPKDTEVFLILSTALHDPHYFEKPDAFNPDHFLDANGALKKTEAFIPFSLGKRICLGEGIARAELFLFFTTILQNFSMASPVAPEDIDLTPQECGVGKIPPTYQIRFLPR

[18] = system: renal cell carcinoma (RCC) patients; assay: Exposure-response (ER) Cox proportional hazard model of progression-free survival; conditions: time-varying average daily cabozantinib concentration
[19] = system: pregnant rats; assay: Embryo-fetal development study in pregnant rats
[20] = Population pharmacokinetic (PopPK) model (RCC patients and healthy volunteers); assay type: in vivo, human
Description: The PopPK model was developed using nonlinear mixed effects modeling methodology (NONMEM v7.3) that incorporated 1650 measurable PK concentrations from 345 subjects (Table 10.1).
Covariates were evaluated for effects on apparent plasma clearance (CL/F) and apparent volume of distribution of the central compartment (VF) (Table 10.2).
In FIG. 10.1: • F1=fraction of dose in the first depot; • F2=fraction of dose in the second depot; • Ka=depot 1 absorption rate constant • Ka2=depot 2 absorption rate constant; • ALAG1=depot 1 absorption lag time; • ALAG2=depot 2 absorption lag time • Vc/F=apparent volume of distribution (central compartment); • Vp/F=apparent volume of distribution (peripheral compartment); • Q/F=apparent flow between plasma (central) and peripheral compartments; • CL/F=apparent plasma clearance

[21] = molecular target: T1, CYP2D6; assay: In vitro CYP inhibition by cabozantinib; assay type: in vitro ADME
[22] = system: human plasma; assay: Plasma protein binding
[23] = molecular target: FLT-3 (Homo sapiens, UniProt P36888); assay: In vitro biochemical and/or cellular kinase assays
[24] = system: mouse; assay: In vivo mouse micronucleus assay
[25] = Pharmacokinetics in patients with hepatic impairment; assay type: in vivo, human
Source text: Patients with severe hepatic impairment have not been studied.

[26] = molecular target: TIE-2 (Homo sapiens, UniProt Q02763); assay: In vitro biochemical and/or cellular kinase assays
[27] = molecular target: CYP3A4 (Homo sapiens, UniProt P08684); assay: Metabolic pathways in vitro: effect of CYP inhibition on cabozantinib metabolite formation; assay type: in vitro ADME
Chain of CYP3A4 (P08684 whole entry): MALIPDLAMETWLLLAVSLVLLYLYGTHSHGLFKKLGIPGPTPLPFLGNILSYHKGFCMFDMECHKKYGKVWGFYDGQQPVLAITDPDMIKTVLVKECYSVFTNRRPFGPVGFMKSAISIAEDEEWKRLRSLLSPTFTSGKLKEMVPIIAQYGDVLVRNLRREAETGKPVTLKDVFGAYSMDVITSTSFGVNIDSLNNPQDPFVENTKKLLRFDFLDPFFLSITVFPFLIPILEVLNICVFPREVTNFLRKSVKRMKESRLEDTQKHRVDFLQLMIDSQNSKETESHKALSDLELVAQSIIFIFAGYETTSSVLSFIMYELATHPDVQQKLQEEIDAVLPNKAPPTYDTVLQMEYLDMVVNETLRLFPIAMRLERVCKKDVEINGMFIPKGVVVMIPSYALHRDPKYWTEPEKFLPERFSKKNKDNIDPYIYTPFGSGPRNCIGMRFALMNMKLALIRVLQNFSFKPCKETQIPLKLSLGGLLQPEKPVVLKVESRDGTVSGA

[28] = Excretion after single 140 mg 14C-cabozantinib dose in healthy subjects; assay type: in vivo, human
Description: Approximately 81% of the total administered radioactivity was recovered within a 48-day collection period following a single 140 mg dose of an investigational ^14C-cabozantinib formulation in healthy subjects. Approximately 54% was recovered in feces and 27% in urine.

[29] = system: male and female rats; conditions: rat, in vivo
[30] = system: advanced renal cell carcinoma; conditions: nivolumab study; cited from earlier work
[31] = final PopPK model parameter estimate
[32] = final PopPK model parameter estimate, RCC patients and healthy volunteers

Chain of P-gp (P08183 whole entry): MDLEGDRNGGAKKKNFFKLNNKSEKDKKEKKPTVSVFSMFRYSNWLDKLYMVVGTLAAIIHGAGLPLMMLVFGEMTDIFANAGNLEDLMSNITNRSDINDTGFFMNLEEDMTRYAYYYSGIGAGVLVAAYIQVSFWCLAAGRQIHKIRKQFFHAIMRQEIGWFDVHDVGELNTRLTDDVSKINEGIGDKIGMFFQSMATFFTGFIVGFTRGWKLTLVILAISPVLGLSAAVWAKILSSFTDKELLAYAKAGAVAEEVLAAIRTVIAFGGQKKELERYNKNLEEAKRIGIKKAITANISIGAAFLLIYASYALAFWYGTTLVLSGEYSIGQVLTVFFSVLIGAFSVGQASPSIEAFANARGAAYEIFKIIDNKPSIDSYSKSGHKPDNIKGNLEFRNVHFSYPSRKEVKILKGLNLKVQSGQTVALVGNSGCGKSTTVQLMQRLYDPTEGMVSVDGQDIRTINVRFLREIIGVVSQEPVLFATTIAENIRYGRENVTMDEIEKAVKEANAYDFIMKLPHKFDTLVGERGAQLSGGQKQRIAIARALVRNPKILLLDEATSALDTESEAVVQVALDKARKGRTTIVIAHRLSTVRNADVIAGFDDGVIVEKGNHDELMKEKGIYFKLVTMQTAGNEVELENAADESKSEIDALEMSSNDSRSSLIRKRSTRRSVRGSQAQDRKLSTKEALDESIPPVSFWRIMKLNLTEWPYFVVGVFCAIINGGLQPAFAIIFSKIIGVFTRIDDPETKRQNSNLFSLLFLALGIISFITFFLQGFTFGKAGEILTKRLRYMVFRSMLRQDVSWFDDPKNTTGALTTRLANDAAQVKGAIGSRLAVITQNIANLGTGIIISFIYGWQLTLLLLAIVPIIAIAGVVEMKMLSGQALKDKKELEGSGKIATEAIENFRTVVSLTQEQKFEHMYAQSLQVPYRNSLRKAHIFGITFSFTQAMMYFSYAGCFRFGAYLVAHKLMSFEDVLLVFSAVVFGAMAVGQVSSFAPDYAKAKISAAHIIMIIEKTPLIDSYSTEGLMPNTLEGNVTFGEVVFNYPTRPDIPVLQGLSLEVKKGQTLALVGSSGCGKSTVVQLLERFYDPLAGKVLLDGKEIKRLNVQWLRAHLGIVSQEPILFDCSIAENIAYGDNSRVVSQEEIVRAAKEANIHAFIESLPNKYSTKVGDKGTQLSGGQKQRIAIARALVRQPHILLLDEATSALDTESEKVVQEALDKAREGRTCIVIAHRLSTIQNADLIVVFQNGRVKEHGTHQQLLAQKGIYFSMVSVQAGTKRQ
Chain of TRKB (Q16620 32-822): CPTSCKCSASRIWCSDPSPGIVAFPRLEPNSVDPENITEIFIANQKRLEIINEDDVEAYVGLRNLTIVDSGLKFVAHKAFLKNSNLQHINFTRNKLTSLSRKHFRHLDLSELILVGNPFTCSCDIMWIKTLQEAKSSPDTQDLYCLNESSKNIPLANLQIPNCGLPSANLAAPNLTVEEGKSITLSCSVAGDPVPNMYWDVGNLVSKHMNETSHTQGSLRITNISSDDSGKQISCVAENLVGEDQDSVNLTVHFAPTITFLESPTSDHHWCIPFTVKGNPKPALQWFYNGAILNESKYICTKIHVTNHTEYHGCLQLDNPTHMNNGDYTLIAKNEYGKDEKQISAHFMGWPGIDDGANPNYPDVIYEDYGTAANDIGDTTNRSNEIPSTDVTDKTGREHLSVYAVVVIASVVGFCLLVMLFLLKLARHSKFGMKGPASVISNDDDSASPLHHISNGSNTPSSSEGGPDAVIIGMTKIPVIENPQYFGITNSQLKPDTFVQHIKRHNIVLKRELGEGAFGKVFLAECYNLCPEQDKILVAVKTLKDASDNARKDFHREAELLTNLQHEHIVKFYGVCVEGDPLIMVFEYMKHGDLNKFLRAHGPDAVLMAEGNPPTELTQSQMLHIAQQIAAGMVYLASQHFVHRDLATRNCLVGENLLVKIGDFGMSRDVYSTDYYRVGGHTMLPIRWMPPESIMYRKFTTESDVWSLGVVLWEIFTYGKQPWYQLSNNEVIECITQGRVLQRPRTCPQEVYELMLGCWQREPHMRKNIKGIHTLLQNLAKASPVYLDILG

SMILES: COc1cc2nccc(Oc3ccc(NC(=O)C4(C(=O)Nc5ccc(F)cc5)CC4)cc3)c2cc1OC [cabozantinib]
- Inhibition of P-gp transport activities [1]: inhibitor
- P-gp substrate status [1]: not a substrate
- Inhibition of tyrosine kinase activity [2]: inhibits
- Effect of age, sex, race, mild to moderate renal impairment on pharmacokinetics ([3]; age 32-86 years, eGFR ≥30 mL/min/1.73 m^2): did not result in a clinically relevant difference
- Clearance (CL/F) at steady-state ([3]; human, in vivo): 2.2 L/h
- Predicted terminal half-life ([3]; human, in vivo): approximately 99 hours
- Tmax ([3]; human, plasma, oral administration, read-out: Median time to peak plasma concentration (Tmax)): 2 to 3 h
- Steady state achieved by ([3]; repeat daily dosing at 140 mg): ≤ 15 days
- Inhibition of tyrosine kinase activity [4]: inhibits
- Inhibition of tyrosine kinase activity [5]: inhibits
- Effect of inhibition of CYP2A6 on cabozantinib metabolite formation [6]: no effect
- Effect of inhibition of CYP2C8 on cabozantinib metabolite formation [7]: no effect
- Doses without adverse maternal toxicity or effect on pregnancy, parturition, lactation, offspring survival, growth or postnatal development [8]: up to 0.3 mg/kg/day
- Induction of CYP1A1 mRNA [9]: inducer
- Mutagenicity [10]: not mutagenic
- Inhibition of tyrosine kinase activity [11]: inhibits
- Inhibition of tyrosine kinase activity [12]: inhibits
- Dose with visceral malformations and variations (reduced spleen size, missing lung lobe) [13]: 3 mg/kg
- Carcinogenicity [14]: not carcinogenic
- Fatal hemorrhages ([15]; human, in vivo): Fatal hemorrhages also occurred
- Fatal perforations ([15]; human, in vivo): Fatal perforations occurred
- Fatal thrombotic events ([15]; human, in vivo): Fatal thrombotic events occurred
- Reversible Posterior Leukoencephalopathy Syndrome (RPLS) ([15]; human, in vivo): occurred
- Overdosage case findings ([15]; twice the intended dose (200 mg daily) of another formulation for nine days): Grade 3 memory impairment, Grade 3 mental status changes, Grade 3 cognitive disturbance, Grade 2 weight loss, and Grade 1 increase in BUN
- Effect of inhibition of CYP2D6 on cabozantinib metabolite formation [16]: no effect
- Effect of inhibition of CYP2B6 on cabozantinib metabolite formation [17]: no effect
- EC50 of best Emax model for rate of PD or death [18]: 0.1 µg/mL
- Dose causing increased embryo-fetal lethality compared to controls ([19]; daily oral administration throughout organogenesis): 0.03 mg/kg
- Dose with delayed ossification and skeletal variations ([19]; female, rat, in vivo, 0.1 mg/kg/day): 0.1 mg/kg/day
- Predicted steady-state average concentration ([20]; 20 mg dose level): 375 ng/mL
- Predicted steady-state average concentration ([20]; 40 mg dose level): 750 ng/mL
- Predicted steady-state average concentration ([20]; 60 mg dose level): 1125 ng/mL
- CL/F (oral clearance), PopPK estimate ([20]; White male): 2.23 L/h
- Vc/F, PopPK estimate ([20]; White male): 81.5 L
- ALAG1 (depot 1 absorption lag time) [20, 31]: 0.459 h
- ALAG2 (depot 2 absorption lag time) [20, 31]: 16.8 h
- Q/F (apparent flow between plasma (central) and peripheral compartments) [20, 31]: 14.2 L/h
- Vp/F (apparent volume of distribution, peripheral compartment) [20, 31]: 213 L
- Ka2 (depot 2 absorption rate constant) [20, 32]: 0.102 h⁻¹
- Ka (depot 1 absorption rate constant) [20, 32]: 0.568 h⁻¹
- CL/F (apparent plasma clearance) ([20]; final PopPK model parameter estimate, White male): 2.23 L/h
- Inter-individual variability of CL/F ([20]; human, in vivo): 46 % CV
- Lower CL/F in Asian vs White subjects ([20]; human, in vivo): 27%
- Lower CL/F in female vs male subjects ([20]; human, in vivo): 21%
- Vd/F ([20]; human, plasma, oral, final PopPK model parameter estimate, White male, read-out: Vc/F (apparent volume of distribution, central compartment)): 81.5 L
- Vd ([20]; human, plasma, oral, subject, read-out: Terminal phase volume of distribution, PopPK estimate): 319 L
- Inhibition of CYP2D6 in vitro [21]: does not inhibit
- Protein bound in human plasma [22]: ≥ 99.7%
- Inhibition of tyrosine kinase activity [23]: inhibits
- Clastogenicity [24]: not clastogenic
- Exposure in patients with mild to moderate hepatic impairment ([25]; human, in vivo): Increased exposure
- Increase in exposure (AUC0-inf) ([25]; mild (C-P A) hepatic impairment): 81%
- Increase in exposure (AUC0-inf) ([25]; moderate (C-P B) hepatic impairment): 63%
- Inhibition of tyrosine kinase activity [26]: inhibits
- CYP3A4 substrate status in vitro [27]: substrate
- Radioactivity recovered in feces ([28]; 48-day collection): Approximately 54%
- Radioactivity recovered in urine ([28]; 48-day collection): ~27%
- Unchanged cabozantinib in urine ([28]; 72 hour collection): not detectable
- Unchanged cabozantinib, share of total radioactivity in feces ([28]; 72 hour collection): 43%
- Total administered radioactivity recovered ([28]; within a 48-day collection period, single 140 mg dose): Approximately 81%
- Doses at which female fertility was significantly reduced ([29]; female): ≥ 1 mg/kg/day
- Doses at which male fertility was significantly compromised ([29]; male): ≥ 2.5 mg/kg/day

SMILES: CO[C@H]1C[C@@H]2CC[C@@H](C)[C@@](O)(O2)C(=O)C(=O)N2CCCC[C@H]2C(=O)O[C@H]([C@H](C)C[C@@H]2CC[C@@H](OCCO)[C@H](OC)C2)CC(=O)[C@H](C)/C=C(\C)[C@@H](O)[C@@H](OC)C(=O)[C@H](C)C[C@H](C)/C=C/C=C/C=C/1C [everolimus]
- Median OS of comparator arm [30]: 19.6 months
- Median PFS of control arm [30]: 4.4 months
